Results on five molecules are retold here after patent US4863918A, “Enamine quaternary compounds, methods of making and their use as muscle relaxants” (BOC, Inc., priority 1988, dated 1989).

Data set [1] can be described thus: Cardiovascular change (HR, BP) at equi-efficacious dose in dogs. As to conditions: dog. It counts as in vivo.
Data set [2] deals with paw twitch. In words: Twitch depression (muscle relaxant effect) in anesthetized dogs; dog paw twitch. It counts as in vivo, mongrel dogs. Conditions: Table V; for Equi-efficacious dose / ED90: dog paw twitch; for Duration (DURAT.) / Onset / Recovery (RECOV.): dog, at equi-efficacious dose; for ED90: Canis lupus familiaris, iv, read-out: Equi-efficacious dose. As for the experimental part: (§1) Mongrel dogs were injected with 50 mg/kg of pentobarbital until the onset of anesthesia as determined by the eyeblink reflex test. The injectable solutions prepared above were administered intravenously to the anesthesized mongrel dogs and measurements were made of the muscle relaxant effect including maximum twitch depression, onset, duration and recovery time in a clinically known manner. Each of the subjects were compared with a control animal receiving an injection of distilled water.

Data set [3] can be described thus: Cardiovascular change (HR, BP) at equi-efficacious dose in rabbits. The class given is in vivo. As to conditions: rabbit.
The test system of data set [4] is paw twitch. In words: Twitch depression (muscle relaxant effect) in anesthetized rabbits; rabbit paw twitch. Conditions: Table IV; for Equi-efficacious dose / ED90: rabbit paw twitch; for Duration (DURAT.) / Onset / Recovery (RECOV.): rabbit, at equi-efficacious dose; for ED90: Oryctolagus cuniculus, read-out: Equi-efficacious dose. It counts as in vivo, New Zealand White rabbits. How it is done:
[The procedure below names another organism; the source lists this organism under the same test.] as §1
The same compound of the present invention as in
A number of compounds in accordance with the present invention were tested for their neuromuscular blockade Properties. Specifically, the acid addition salts of the compounds were dissolved in sterile water for injection.

Another data set concerns neuromuscular blockade. Conditions: background, in words; cited from earlier work.
[5] abbreviates: Table V, at equi-efficacious dose.
Where [6] appears, read: Table IV, at equi-efficacious dose.

`COc1cc2c3cc1Oc1cc(ccc1O)C[C@@H]1c4c(cc(OC)c(O)c4Oc4ccc(cc4)C[C@@H]3N(C)CC2)CC[N+]1(C)C` [d-tubocurarine]: in data set [1] (setting [5]), the BP % was -25.8% and the HR % was found to be 8.7%. Also, in the data set on paw twitch [2], the Equi-efficacious dose came out at 0.254 mg/kg, the “Duration (DURAT.)” value is 60.0 min, the Onset is 150.8 s and the “Recovery (RECOV.)” value came out at 55.3 min. Besides, in data set [3] (setting [6]), the BP % was 4.8% and the HR % is listed as -0.3%. In the data set on paw twitch [4], the Equi-efficacious dose turned out to be 0.229 mg/kg, the “Duration (DURAT.)” value amounted to 37.3 min, the Onset is 85.0 s and the “Recovery (RECOV.)” value came to 34.8 min. Moreover, in the data set with neuromuscular blockade, the “duration of paralysis and recovery” value was “maintain paralysis for an undesirably long time and the recovery period is slow”.

As for `CC(=O)O[C@H]1C[C@@H]2CC[C@@H]3[C@H](CC[C@@]4(C)[C@H]3C[C@H]([N+]3(C)CCCCC3)[C@@H]4OC(C)=O)[C@@]2(C)C[C@@H]1N1CCCCC1` [vecuronium], in data set [1] (setting [5]), the BP % is reported as 2.3% and the HR % worked out at 3.5%. Further, in the data set on paw twitch [2], the ED90 worked out at 0.019 mg/kg, the “Duration (DURAT.)” value came out at 26.6 min, the Onset amounted to 171.0 s and the “Recovery (RECOV.)” value was 21.8 min. Besides, in data set [3] (setting [6]), the BP % came out at 1.1% and the HR % was -1.9%. Besides, in the data set on paw twitch [4], the ED90 came to 0.019 mg/kg, the “Duration (DURAT.)” value amounted to 16.8 min, the Onset is 97.3 s and the “Recovery (RECOV.)” value amounted to 9.6 min.

Regarding `COc1ccc(CC2c3cc(OC)c(OC)cc3CC[N+]2(C)CCC(=O)OCCCCCOC(=O)CC[N+]2(C)CCc3cc(OC)c(OC)cc3C2Cc2ccc(OC)c(OC)c2)cc1OC` (stereo not shown) [atracurium], in data set [1] (in vivo), the BP % worked out at 0.3% and the HR % was 3.3%. Moreover, in the data set on paw twitch [2], the ED90 was 0.086 mg/kg, the “Duration (DURAT.)” value was 27.9 min, the Onset stood at 159.4 s and the “Recovery (RECOV.)” value is 20.4 min. In addition, in data set [3] (in vivo), the BP % is listed as -3.4% and the HR % is -1.0%. Further, in the data set on paw twitch [4], the ED90 is 0.046 mg/kg, the “Duration (DURAT.)” value was 14.3 min, the Onset is 126.9 s and the “Recovery (RECOV.)” value was determined as 12.2 min.

On to `COc1cc2c(cc1OC)C(Cc1cc(OC)c(OC)c(OC)c1)[N+](C)(CCCOC(=O)CCC=CCCC(=O)OCCC[N+]1(C)CCc3cc(OC)c(OC)cc3C1Cc1cc(OC)c(OC)c(OC)c1)CC2` (stereo not shown) [BW1090], for which, in data set [1] (setting [5]), the BP % is given as -3.1% and the HR % is 0.7%. In addition, in the data set on paw twitch [2], the ED90 worked out at 0.39 mg/kg, the “Duration (DURAT.)” value came to 75.0 min, the Onset came out at 195.5 s and the “Recovery (RECOV.)” value was found to be 70.3 min. Also, in data set [3] (setting [6]), the BP % was found to be 1.2% and the HR % is listed as -0.4%. Also, in the data set with paw twitch [4], the ED90 worked out at 0.504 mg/kg, the “Duration (DURAT.)” value was found to be 8.7 min, the Onset was determined as 48.5 s and the “Recovery (RECOV.)” value was 7.3 min.

On to `C[C@]12CC[C@@H]([N+]3(C)CCCC3)C[C@@H]1CC[C@@H]1[C@@H]2CC[C@@]2(C)[C@H]1CCC[N+]2(C)C.[Br-].[Br-]` [RGH-4201], for which, in data set [1] (in vivo), the BP % is 1.4% and the HR % worked out at 11.3%. In the data set with paw twitch [2], the Equi-efficacious dose is 0.077 mg/kg, the “Duration (DURAT.)” value came to 28.3 min, the Onset came to 123.6 s and the “Recovery (RECOV.)” value came out at 22.0 min. Besides, in data set [3] (in vivo), the BP % is given as 2.6% and the HR % came out at 0.3%. In the data set with paw twitch [4], the Equi-efficacious dose was found to be 0.070 mg/kg, the “Duration (DURAT.)” value stood at 7.7 min, the Onset turned out to be 35.4 s and the “Recovery (RECOV.)” value came out at 6.1 min.
